# Laboratory results reported in patent publication US20110015066A1, “Herbicidal Composition” (priority 2008, published 2011).
# What was measured:
# Susceptible plants = conditions: after post-emergence treatment; cited from earlier work
# broad leaf weeds = experiment: Field trial in wheat: weed population and biomass of broad leaf weeds; type: in vivo
# Method: Parts and percentages are by weight unless otherwise indicated. Field tests were made at various trial sites. The performance of the new combination herbicide according to the present invention (Clodinafop 15% and metsulfuron methyl 1%), Metsulfuron methyl 20% WP and Clodinafop-propargyl 15% WP was evaluated against weed flora in wheat crop during rabi season. Recommended package of practices for wheat crop was followed to raise the crop. The herbicide treatments were applied as post emergence spray at 35 days after sowing (DAS). The data on weed population (number/m^2) and dry matter (gm/m^2) was taken after 60 days after sowing and at the harvest. Similar yields (quintal/hectare i.e. q/ha.) and yield attributed parameters like plant height, number of effective tiller, number of grain per ear-head, test weight were recorded at harvest. A statistical analysis of the entire data was carried out.
# The major weed flora recorded in the experimental field were grasses like Phalaris minor and Avena fatua and broad leaf weeds namely Chenopodium album, Rumex sp., Convolvulus arvensis, Melilotus alba, Medicago denticulata, Fumaria sp. Vicia sativa and Anagalis arvensis.
# [1] = Accelerated Heat Stability of compositions: active ingredient content before and after 14 days; type: physicochemical; conditions: 1 %
# Method: The numbers of formulations were made up as described in above examples. The concentration of Clodinafop propargyl (15%)+Metsulfuron methyl (1%) 16% WP was tested for its active stability at elevated temperature (54±2° C.) and at 3 different pH ranges as shown below.
# The storage stability of the compositions according the present invention was compared with the storage stability of compositions individually and in combination as Tank, mix and plant mixes. The term Tank mix means that clodinafop-propargyl and metsulfuron methyl are mixed in the tank at the time of spraying. The term plant mix means that ready mix of the clodinafop-propargyl and metsulfuron methyl are diluted in the tank before spraying.
smiles,measurement,setting,value
"COC(=O)c1ccccc1S(=O)(=O)NC(=O)Nc1nc(C)nc(OC)n1 [metsulfuron methyl, methyl 2-(4-methoxy-6-methyl-1,3,5-triazin-2-ylcarbamoylsulfamoyl)benzoate]",time in which susceptible plants are killed,Susceptible plants,7 to 21 days
same,control of broad leaf weeds (in words),broad leaf weeds,superior control of broad leaf weeds only
same,Metsulfuron methyl % degradation,[1]; pH 4.5,24.67%
same,Metsulfuron methyl % degradation,[1]; pH 6.8,12.64%
same,Metsulfuron methyl % degradation,[1]; pH 8.5,4.82%
